Patent publication US12663562B2, “Polysaccharide hydrogel optical fibers and their fabrication and use” (The Board of Trustees of the Leland Stanford Junior …, priority 2021, dated 2026)

Experiments:
Assay type in all cases: cell-based
[1] = tested on: LnCAP-RFP-Trop2-OV cancer cells; assay: Digitalization and quantification of 3D cancer invasive proliferation in living optical fibers (output power, RFP-level transmission)
Description: In order to evaluate the invasive proliferation of encapsulated cancer cells over time and quantify this response through optics upon exposure to different levels of the anti-proliferative drug cisplatin, the core material was modified by blending alginate with GelTrex (Growth-Factor Reduced Basement Membrane, Thermofisher) at a 50:50 ratio. Fibers with Cells were fabricated as described before with a 10 million/mL density and were cultured for 1 week to observe the cancer tissue development and the formation of fiberoid (fiber-shaped organoids) structures. To do so, fibers were incubated with Calcein AM 1:500 (Invitrogen) and Hoechst 33342 1:1000 (Thermo Scientific), washed with PBS and imaged under confocal microscope (Zeiss). As model cell line, we used the RFP-expressing LNCaP-RFP-Trop2-OV due to its aggressiveness and relevance in metastatic events. To then quantify the effect of cisplatin in the impedance of 3D tumor growth, fibers were cultured over a 5-days period under control conditions and increasing concentrations of cisplatin (1.5, 15 and 150 μM). After each time point, fibers were washed twice with CaPBS, briefly dipped in 1 mM CaCl2) and aligned in the optical characterization setup. Two types of immediate readouts were acquired: output power via powermeter reading and spectral response through spectrometer connection. Output power was directly used as an indicator of light attenuation induced by tumor growth and spectral data was processed to extract RFP-level transmission values, as plotted in the maintext. In parallel, fibers were also axially sectioned and imaged in confocal microscope for observing the distribution of cancer cells and aggregates within the fiber structure overtime and validate the fiber optics readouts.

[2] = tested on: DU145 cells; assay: Spectral fingerprinting (RFP-level transmission, real-time calcein AM metabolism) of cancer cells in living optical fibers; conditions: DU145 cells in fiber core, 48 h culture, 1.5 μM cisplatin or 1 μM staurosporine
Description: (§1) To validate the possibility of light carrying information upon interaction with fluorescent molecules, 3T3 fibroblasts were stained with two model fluorescent markers of different wavelengths, namely Orange Cell Tracker CMRA and Calcein AM (Invitrogen) according to manufacturer's instructions. Briefly, 3T3 cells in suspension were incubated with each marker for 30 minutes under 37° C., washed with PBS, and introduced in the optical fiber core as described above. Fibers were then fabricated and aligned in the input-output setup as previously described the light source and spectrometer. Output spectra were collected and spectral ratios were obtained by dividing the spectra of fluorescent-tagged cell-laden fibers to those without fluorescent molecules, in order to confirm the presence of transmission dips in agreement with the marker's excitation curves. For performing calcein AM overtime metabolic tracking, 4 cm-long fibers with unstained cells were aligned in the optical readout setup, and 10 μL of a 1:100 Calcein AM solution in CaPBS was added dropwise along the optical fiber's length. The spectral output was then collected every minute for a total of 10 minutes after the beginning of the calcein AM metabolization. The 495 nm normalized transmission values were obtained by normalizing all spectral curves to their maximum and extracting the normalized intensity values as an average of the 493-495 nm window. These were then plotted overtime.
LNCaP, 22Rv1, and DU145 cells were purchased from the American Type Culture Collection (ATCC; Manassas, VA). All cell lines were authenticated through Stanford Functional Genomics Facility. FUCRW plasmid was a kind gift from Dr. Owen Witte's laboratory at University of California Los Angeles. 22Rv1 and DU145 cells were infected with FUCRW virus expressing red fluorescent protein (RFP). RFP signal was confirmed 72 hours post infection. […]
Spectral fingerprinting tests with the different cell lines were performed by integrating them within optical hydrogel fibers as described in the previous section. […] After 48 h of culture, the living optical fibers were washed twice with PBS to remove media remains that could interfere with optical readouts (e.g., Phenol Red). […] RFP-level transmission readouts were immediately obtained from the first output collected, and calcein activity overtime was then tracked by the addition of calcein and spectral recording every minute for 10 minutes, as described in the previous section. […] Both RFP and calcein signals were analyzed in several pictures per replicate via Cell Profiler, in order to compare the relative post-incubation signal intensities to the relative decreases in fiber optics transmission at each specific wavelength instantly (RFP) and overtime (calcein).

[3] = tested on: RV122 cancer cells; assay: Optical fiber anti-cancer drug testing (RFP-level transmission, calcein profiling, image quantification); conditions: for calcein activity profiling (slope of calcein conversion): RV122 cancer cells after culture with drug; for image quantification of native protein expression (RFP) and calcein metabolization: microscopy validation, RV122 cancer cells
Description: as §1
LNCaP, 22Rv1, and DU145 cells were purchased from the American Type Culture Collection (ATCC; Manassas, VA). All cell lines were authenticated through Stanford Functional Genomics Facility. FUCRW plasmid was a kind gift from Dr. Owen Witte's laboratory at University of California Los Angeles. 22Rv1 and DU145 cells were infected with FUCRW virus expressing red fluorescent protein (RFP). RFP signal was confirmed 72 hours post infection. LNCaP-RFP-Trop2-OV cells expressing RFP and Trop2 oncogene were generated as previously described ^43. All cells were cultured in RPMI medium supplemented with 10% FBS, 4 mM L-glutamine, and 1% penicillin/streptomycin.
Spectral fingerprinting tests with the different cell lines were performed by integrating them within optical hydrogel fibers as described in the previous section. Briefly, cancer cells were resuspended in the core material at a density of 10 M/mL and cultured in different conditions, namely control medium, 1.5 μM Cisplatin (Biovision) or 1 μM Staurosporine (Biovision). After 48 h of culture, the living optical fibers were washed twice with PBS to remove media remains that could interfere with optical readouts (e.g., Phenol Red). Before measurement, fibers were placed in a 1 mM CaCl2) solution to facilitate their manipulation and were then aligned in the optical characterization setup with spectrometer connection. RFP-level transmission readouts were immediately obtained from the first output collected, and calcein activity overtime was then tracked by the addition of calcein and spectral recording every minute for 10 minutes, as described in the previous section. […] Both RFP and calcein signals were analyzed in several pictures per replicate via Cell Profiler, in order to compare the relative post-incubation signal intensities to the relative decreases in fiber optics transmission at each specific wavelength instantly (RFP) and overtime (calcein).

## N.N.[Cl][Pt][Cl] [cisplatin]
[1]; cisplatin 1.5 µM
  RFP expression (RFP-level transmission): some effect in the protein's expression by day 5
[1]; cisplatin 1.5 μM, up to 5 days
  cancer growth (optical fiber output power): no significant impact
[1]; cisplatin 15 μM
  RFP expression (RFP-level transmission): noticeable effect after day 3
[1]; cisplatin 15 μM, up to 5 days
  cancer growth (optical fiber output power): prevented considerable growth after 3 days
[1]; cisplatin 150 μM, after 1 day of culture
  RFP expression (RFP-level transmission): significant decrease in expression
[1]; cisplatin 150 μM, up to 5 days
  cancer growth / invasive proliferation (optical fiber output power): efficiently inhibited the invasive proliferation
[2]
  RFP expression (RFP-level transmission): little impact
  capacity of cells to metabolize calcein (calcein AM real-time profile): little impact
[3]
  calcein activity profiling (slope of calcein conversion): decrease in the slope
  image quantification of native protein expression (RFP) and calcein metabolization: moderate effect

## CN[C@@H]1C[C@H]2O[C@@](C)([C@@H]1OC)n1c3ccccc3c3c4c(c5c6ccccc6n2c5c31)C(=O)NC4 [staurosporine]
[2]
  RFP expression (RFP-level transmission): significant reduction in RFP expression
  capacity of cells to metabolize calcein (calcein AM real-time profile): drastic inhibition
[3]
  calcein activity profiling (slope of calcein conversion): no longer possible to observe metabolic calcein conversion
  image quantification of native protein expression (RFP) and calcein metabolization: more prominent effects
[3]; RV122 cancer cells in fibers after drug exposure
  native fluorescence, RFP-level transmission: significant decrease in fluorescent
